Here are results for two substances from article PMC8080589, “Modulation of αVβ6 integrin in osteoarthritis-related synovitis and the interaction with VTN(381–397 a.a.) competing for TGF-β1 activation” (Experimental & Molecular Medicine, 2021).

Ends that are not written are not given here.

In one assay the target is T1, integrin αVβ6 (Homo sapiens, UniProt P06756+P18564).
T1 construct: purchased R&D System; Minneapolis, MN, USA
The experiment in a line: Competition study, 125ISIB-echistatin vs ligands on coated αVβ6. Type of assay: binding. Conditions: competition with 125ISIB-echistatin on α5β1, αVβ1, αVβ3, αVβ5, αVβ6. How it is done:
A competition study was performed to investigate the interaction of VTN(381–397 a.a.) with five different integrins. Radiolabeled echistatin, a disintegrin known to bind integrin receptors, was used as a tracer for the binding assays. Lyophilized echistatin was provided by Bachem (Bubendorf, Switzerland) and radiolabeled by conjugation with a radioiodinated benzoate (^125ISIB) to the epsilon amino group of lysine side chains. For the five integrins, α5β1, αVβ1, αVβ3, αVβ5, and αVβ6 (R&D System; Minneapolis, MN, USA), a solution at 1.8 µg/mL was prepared with integrin-binding buffer (IBB; 20 mM Tris pH 7.4, 150 mM NaCl, 2 mM CaCl2, 1 mM MgCl2, 1 mM MnCl2). Nunc Maxisorp Module plates were coated overnight at 4 °C with integrin complex at 1.8 µg/mL. After the wells were washed with sample buffer (IBB, 0.5% BSA), blocking solution (IBB, 2% BSA) was added, and the microplate was incubated for 2 h at room temperature. The wells were then washed three times with IBB/0.5% BSA. Then, ^125ISIB-echistatin was diluted in sample buffer to fixed concentrations of 4, 4, 8, 8, and 20 nM for α5β1, αVβ1, αVβ3, αVβ5, and αVβ6 competition studies, respectively. The ^125ISIB-echistatin was mixed with sample buffer at a ratio of 1:1 (total binding = control well) or with increasing concentrations of ligands (Supplementary information SI1) [complete VTN, VTN(381–397 a.a.), VTN(365–381 a.a.)] at a ratio 1:1 and added to wells in duplicate. We used 1,4,7-triazacyclononane-1,4,7-triacetic acid (NOTA) as a negative control. […] After rinsing, bound radioactivity was quantified using a gamma counter. The percentage of relative binding of radiolabeled echistatin was calculated as follows: radioactivity in the test well*100/radioactivity in the reference well. […] For comparison of the potency of ligands in inhibiting bound ^125ISIB-echistatin for different integrin complexes, the half-maximal inhibitory concentration (IC50) was calculated. The IC50 value was determined by constructing a dose–response curve and examining the effect of different concentrations of ligands on ^125ISIB-echistatin binding. […]
To determine if VTN(381–397 a.a.) could interact with integrins, we investigated its ability to compete with radiolabeled echistatin for binding to five different integrin complexes: α5β1, αVβ1, αVβ3, αVβ5 and αVβ6. […] First, the binding affinity of echistatin to the five integrins was measured by determining the equilibrium dissociation constant (KD). […] The fixed concentration of radiolabeled echistatin was determined according to its KD value. For each ligand concentration, the relative binding of ^125ISIB-echistatin to coated integrins was then measured, and values were plotted versus the logarithm of ligand concentration.

A further assay has as its system β3 phosphorylation. To be noted: through binding to αVβ3; ref [32]; cited from earlier work. An excerpt: (§1) In this study, we started to move towards a functional investigation of the role of VTN(381–397 a.a.) in OA. VTN is known to interact with integrin receptors by its RGD motif, which is positioned far upstream from VTN(381–397 a.a.) on the N-terminal end of VTN. However, Maile and colleagues also previously described a second integrin-binding site located within the HBD between amino acids 365 and 381[32],[33]. […] Considering that the fragment VTN(381–397 ...

A further assay deals with αVβ3. Conditions: ref [32]; cited from earlier work.
From the text: as §1

The next assay deals with α-SMA in human FLSs. The experiment in a line: Expression of α-SMA in FLSs by western blot. Type of assay: cell-based. Conditions: TGF-β1 10 ng/mL, 7 days, OA FLSs (n = 5), western blot normalized to Hsp90. As to the method: Finally, for analysis of the expression of α-SMA, FLSs (n = 5) were stimulated with VTN(381–397 a.a.) (10, 25, 50, 100 ng/mL) with or without TGF-β1 (10 ng/mL) for 7 days.
The expression of αV and β6 subunits and α-SMA in FLSs was evaluated by western blot analysis. Cells were scraped from plates and lysed with lysis buffer (25 mM HEPES, 150 mM NaCl, 0.5% Triton, 10% glycerol, 1 mM dithiothreitol) containing phosphatase inhibitors (25 mM β-glycerophosphate, 1 mM Na3VO4, and 1 mM NaF) and complete protease inhibitor mixture (Roche Applied Science; Penzberg, Germany). Total proteins were separated by 10% SDS–PAGE gels (12% for α-SMA) and transferred onto PVDF membranes. The membranes were then incubated with anti-αV polyclonal antibody (1:250 dilution) (Cell Signaling Technology; Boston, MA, USA), anti-β6 polyclonal antibody (1:1000 dilution) (Abcam; Cambridge, UK) or anti-α-SMA monoclonal antibody (Agilent; Santa Clara, CA, USA; 1:1000 dilution). […] Data were analyzed by paired Wilcoxon test; a p-value < 0.05 was considered statistically significant. […]
FLSs were stimulated with VTN(381–397 a.a.) with or without TGF-β1 to evaluate the effect on the expression of the fibrotic marker α-SMA (Fig. 5). […] The results in Fig. 5 are expressed as the ratio of the normalized optical density vs. the control and are shown as the mean (±SEM).
In general terms: Immunoblotting shows a protein as a band on a membrane.

Assay [1] concerns β6 integrin subunit expression, human fibroblast-like synoviocytes (FLSs). The experiment in a line: β6 subunit expression in FLSs by western blot after stimulation. Type of assay: cell-based. Conditions: TGF-β1 10 ng/mL, 3 or 7 days, n = 12, OA FLSs, western blot normalized to GAPDH, paired Wilcoxon, p-value ≤ 0.01. How it is done: Synovial membranes were obtained from 22 OA patients (14 females, 8 males; mean age 69.8 ± 9.6 years, BMI 30.9 ± 6.8) during knee replacement, and primary synovial fibroblasts were isolated as explained previously. The research ethics committee of CHU de Liege (Belgium) approved the study, and the patient gave informed consent to allow research procedures on samples. Human fibroblast-like synoviocytes (FLSs) were then cultured in DMEM supplemented with 10% FBS, 1% Pen/Strep, and 1% L-glutamine (all from Lonza; Basel, Switzerland) at 37 °C in an atmosphere of 5% CO2. In a plate, 5 × 10^4 FLSs were stimulated with different compounds to analyze the modulation of αVβ6: (i) TGF-β1, TNF-α, IL-1β, or IL-6 were used for 3 or 7 days at a concentration of 10 ng/mL; (ii) among the danger-associated molecular patterns, high-mobility group box 1 (HMGB1) was tested at 10, 50, and 100 ng/mL for 3 days, while S100A9 and S100A12 were tested at 100 and 200 ng/mL for 3 days or 24 h; (iii) advanced glycation end product (AGE-BSA) was tested at 50, 100, and 200 μg/mL for 3 days or 24 h; (iv) prednisolone and dexamethasone were used at 1 μM for 3 or 7 days; and (v) menadione or H2O2 was used to induce oxidative stress at 25–50–100 μM (3 h) and 100–200–400 μM (2 h), respectively, without FBS in the medium.
The expression of αV and β6 subunits and α-SMA in FLSs was evaluated by western blot analysis. Cells were scraped from plates and lysed with lysis buffer (25 mM HEPES, 150 mM NaCl, 0.5% Triton, 10% glycerol, 1 mM dithiothreitol) containing phosphatase inhibitors (25 mM β-glycerophosphate, 1 mM Na3VO4, and 1 mM NaF) and complete protease inhibitor mixture (Roche Applied Science; Penzberg, Germany). Total proteins were separated by 10% SDS–PAGE gels (12% for α-SMA) and transferred onto PVDF membranes. The membranes were then incubated with anti-αV polyclonal antibody (1:250 dilution) (Cell Signaling Technology; Boston, MA, USA), anti-β6 polyclonal antibody (1:1000 dilution) (Abcam; Cambridge, UK) or anti-α-SMA monoclonal antibody (Agilent; Santa Clara, CA, USA; 1:1000 dilution). HRP-conjugated anti-rabbit antibody (1:1000 dilution) (Cell Signaling Technology) was used as the secondary antibody. Immunoblots were developed using the ECL chemiluminescent detection system. Rabbit anti-glyceraldehyde 3-phosphate dehydrogenase (GAPDH) (Merck) or rabbit anti-heat shock protein 90 (Hsp90; Santa Cruz) was used as loading controls at a dilution of 1:10,000 or 1:200, respectively. Values of optical intensity were normalized to GAPDH or Hsp90 levels. Data were analyzed by paired Wilcoxon test; a p-value < 0.05 was considered statistically significant. Statistical analysis was performed with GraphPad Prism 6 software (San Diego, CA, USA).
IL-1β 10 ng/mL 3 days IL-6 10 ng/mL 3 daysIL-6 Prednisolone 1µM 3 daysPrednisolone
0.0 control IL-6 0.0 control PRE
Dexamethasone 1µM 3 daysDexamethasone TNF-α 10 ng/mL 3 days AGE 50 µg/mL 24 h

T1 sequence (P06756 31-992 limits assumed): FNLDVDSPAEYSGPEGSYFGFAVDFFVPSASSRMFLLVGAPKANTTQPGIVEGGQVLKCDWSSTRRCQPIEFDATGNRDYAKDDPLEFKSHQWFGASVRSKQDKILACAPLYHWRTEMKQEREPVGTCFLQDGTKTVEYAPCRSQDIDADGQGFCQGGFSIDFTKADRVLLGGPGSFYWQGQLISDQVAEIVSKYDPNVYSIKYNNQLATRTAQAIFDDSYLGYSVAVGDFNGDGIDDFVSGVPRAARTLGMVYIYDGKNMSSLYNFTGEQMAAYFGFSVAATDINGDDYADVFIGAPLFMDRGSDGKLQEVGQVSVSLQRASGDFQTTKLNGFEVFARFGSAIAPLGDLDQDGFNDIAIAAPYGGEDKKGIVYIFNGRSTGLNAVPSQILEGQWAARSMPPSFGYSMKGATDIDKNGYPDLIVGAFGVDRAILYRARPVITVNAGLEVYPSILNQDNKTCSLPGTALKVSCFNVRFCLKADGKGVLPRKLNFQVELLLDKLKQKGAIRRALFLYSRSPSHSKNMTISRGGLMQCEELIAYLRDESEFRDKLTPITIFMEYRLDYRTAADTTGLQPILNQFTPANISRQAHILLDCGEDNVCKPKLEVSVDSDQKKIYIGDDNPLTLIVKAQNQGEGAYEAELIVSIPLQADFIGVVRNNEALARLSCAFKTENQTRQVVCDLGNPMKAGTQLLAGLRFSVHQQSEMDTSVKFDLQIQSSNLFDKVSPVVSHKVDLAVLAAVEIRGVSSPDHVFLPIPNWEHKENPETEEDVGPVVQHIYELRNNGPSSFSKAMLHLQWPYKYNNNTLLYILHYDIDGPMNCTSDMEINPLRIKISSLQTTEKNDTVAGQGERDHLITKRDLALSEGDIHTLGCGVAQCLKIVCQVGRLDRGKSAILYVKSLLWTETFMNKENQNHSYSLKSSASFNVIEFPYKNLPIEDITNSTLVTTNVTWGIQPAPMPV
T1 sequence (P18564 22-707 limits assumed): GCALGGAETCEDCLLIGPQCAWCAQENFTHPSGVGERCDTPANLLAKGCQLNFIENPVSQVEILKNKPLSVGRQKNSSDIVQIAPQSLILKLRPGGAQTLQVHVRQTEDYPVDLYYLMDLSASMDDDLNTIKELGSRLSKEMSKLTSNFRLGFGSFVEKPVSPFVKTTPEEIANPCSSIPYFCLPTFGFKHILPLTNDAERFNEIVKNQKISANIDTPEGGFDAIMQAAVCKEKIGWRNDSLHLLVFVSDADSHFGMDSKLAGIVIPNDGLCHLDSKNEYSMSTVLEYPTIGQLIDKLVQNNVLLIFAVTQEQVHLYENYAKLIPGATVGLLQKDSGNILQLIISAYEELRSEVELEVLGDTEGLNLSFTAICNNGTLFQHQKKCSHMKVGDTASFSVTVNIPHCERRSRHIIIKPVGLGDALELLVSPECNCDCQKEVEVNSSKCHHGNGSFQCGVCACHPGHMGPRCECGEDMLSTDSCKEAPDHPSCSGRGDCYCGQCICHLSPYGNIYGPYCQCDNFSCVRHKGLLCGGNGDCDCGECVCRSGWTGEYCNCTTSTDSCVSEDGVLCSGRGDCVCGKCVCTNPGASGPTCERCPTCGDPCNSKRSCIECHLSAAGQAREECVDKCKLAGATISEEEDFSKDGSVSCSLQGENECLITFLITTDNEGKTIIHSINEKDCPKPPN

In the case of LAKKQRFRHRNRKGYRS [VTN(365–381 a.a.)], on integrin αVβ6, the “integrin binding specificity” value is “only showed a high affinity for integrin αVβ6”. Further, in the assay on β3 phosphorylation, the “effect on β3 phosphorylation” value was “its binding was sufficient to enhance β3 phosphorylation”. In addition, the “interaction with αVβ3” value in the assay on αVβ3 is reported as “could interact with αVβ3”.
In the case of TGF-β1: profibrotic mediator, the “effect on α-SMA” value with α-SMA in human FLSs was “upregulated the content of the fibrotic marker α-SMA”. The “effect on β6 subunit expression” value in assay [1] is “significantly increased β6 expression”.
